According to patent US20260248787A9, “MEDICAMENT FOR TREATING CANCER COMPRISING OPTICALLY ACTIVE AZABICYCLO RING DERIVATIVE” (Sumitomo Pharma Co., Ltd., priority 2023, published 2026):

Tested on: acute leukemia with MLLr or NPM1m
Assay: Phase 1/2 clinical study, clinical activity (responses by ELN 2017)
Format: in vivo, human
[1] = MLLr + NPM1m, ≥140 mg BID, n=21

C=C1C[C@@H]2CC[C@H]1[C@@H](C(=O)N1CCC3(CC1)CN(c1ncncc1Oc1ccc(F)cc1C(=O)N(C(C)C)C(C)C)C3)N2 [the present compound, 5-fluoro-2-[(4-{7-[(1S,3S,4R)-5-methylidene-2-azabicyclo[2.2.2]octane-3-carbonyl]-2,7-diazaspiro[3.5]nonan-2-yl}pyrimidin-5-yl)oxy]-N,N-di(propan-2-yl)benzamide]
responders per ELN 2017 (43 enrolled, MLLr or NPM1m, 19 evaluable): 5 responders | objective response rate (ORR) by ELN 2017 (CR+CRi+MLFS) (MLLr (20 AML, 2 ALL), ≥140 mg BID, no prior menin inhibitor (13/22)): 59.1% | CR + CRh (ELN 2017) [1]: 5 (24%) n (%) | Composite CR (ELN 2017) [1]: 7 (33%) n (%) | Objective Response Rate (ELN 2017) [1]: 12 (57%) n (%) | CR+CRh (MLLr or NPM1m, all dose levels 40-300 mg BID, prior menin inhibitor naïve, finished 1 cycle (6/38)): 16% | ORR (MLLr or NPM1m, all dose levels 40-300 mg BID, prior menin inhibitor naïve, finished 1 cycle (12/38)): 32% | CR+CRh rate (MLLr or NPM1m, ≥140 mg BID, prior menin inhibitor naïve, finished 1 cycle (5/22)): 23% | ORR (CR+CRi+MLFS) (MLLr or NPM1m, ≥140 mg BID, prior menin inhibitor naïve, finished 1 cycle (10/22)): 45% | CR+CRh (MLLr, ≥140 mg BID (2/12 patients)): 17% | Objective Response Rate (ORR; CR+CRh+CRi+MLFS) (MLLr, ≥140 mg BID (8/12 patients)): 67% | CR + CRh (ELN 2017) (MLLr, ≥140 mg BID, n=12): 2 (17%) n (%) | Composite CR (ELN 2017) (MLLr, ≥140 mg BID, n=12): 5 (42%) n (%) | Objective Response Rate (ELN 2017) (MLLr, ≥140 mg BID, n=12): 8 (67%) n (%) | CR+CRh (MLLr, ≥140 mg BID, no prior menin inhibitor (5/22)): 22.7% | CR+CRh (NPM1m AML, ≥140 mg BID, no prior menin inhibitor (3/13)): 23.1% | ORR (NPM1m AML, ≥140 mg BID, no prior menin inhibitor (7/13)): 53.8% | CR+CRh (NPM1m, ≥140 mg BID (3/9 patients)): 33% | ORR (NPM1m, ≥140 mg BID (4/9 patients)): 44% | CR + CRh (ELN 2017) (NPM1m, ≥140 mg BID, n=9): 3 (33%) n (%) | Composite CR (ELN 2017) (NPM1m, ≥140 mg BID, n=9): 3 (33%) n (%) | Objective Response Rate (ELN 2017) (NPM1m, ≥140 mg BID, n=9): 4 (44%) n (%) | response achieved (ELN 2017) (a patient with MLLr, 120 mg BID Arm A): MLFS | additional patients with MLLr with response per ELN2017 (CRh/CRi and MLFS) (lower dose levels): Two | median time to CR+CRh (overall, ≥140 mg BID): 1.0 months | median time to objective response (overall, ≥140 mg BID): 1.0 months | Bone marrow blast reduction (patients with MLLr or NPM1m (FIG. 8)): observed
